Assay results from the supplement of paper PMC11997997.

Tests used:
[1] = system: murine bone marrow-derived macrophages; experiment: area under cytotoxicity dose-response curve (AUC (% cytotoxicity x dose, relative)); higher = more cytotoxic; conditions: duration: 6 days; dose range: 0.13-80 uM, 8 points
How it was run: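 Values are the area under the cytotoxicity dose–response curve, calculated with GraphPad Prism version 10. Primary murine bone marrow-derived macrophages were exposed to final concentrations of 80–0.13 μM for 6 days, and viability was read by CellTiter-Glo luminescence with normalisation to vehicle and positive control wells.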

[2] = system: Mycobacterium tuberculosis CDC1551 (intracellular, in murine BMDM); experiment: area under intracellular growth-inhibition dose-response curve (AUC (% inhibition x dose, relative)); higher = more potent; conditions: duration: 6 days; dose range: 0.13-80 uM, 8 points
How it was run: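 The value is the area under the growth-inhibition dose–response curve, calculated in GraphPad Prism. Primary murine bone marrow-derived macrophages were seeded in 384-well opaque plates and, 24 h later, infected for 1 h with luciferase-expressing M. tuberculosis CDC1551 at multiplicity of infection 1. Cells were then exposed for 6 days to an 8-dose, 2.5-fold series (final 80–0.13 μM). Growth was read with the Bright-Glo luciferin assay and normalised to a reference drug control and to the lowest-concentration wells.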

Structure (SMILES) | area under cytotoxicity dose-response curve [1] | area under intracellular growth-inhibition dose-response curve [2]
O=C(NCC1CCCCC1)c1ccc(Cl)nc1 | 2.72 | 258
CCNC(=S)Nc1ccc(OCc2nc3ccccc3s2)cc1 | 35.3 | 273
O=C(NCc1ccc(Cl)cc1)c1ccc(Br)o1 | 52.2 | 204
Cc1ccc(C)c2sc(N3CCN(C(=O)c4ccc([N+](=O)[O-])o4)CC3)nc12 | 33.4 | 3.34
CN(C(=O)CSc1ncnc2sc3c(c12)CCC3)C1CCS(=O)(=O)C1 (configuration not stated) | 4.88 | 60.2
C/C(=N/NC(=O)c1ccncc1)c1ccc(NC(=O)c2ccccc2)cc1 | 28.2 | 240
Cc1cc(NS(=O)(=O)c2ccc(NC(=S)Nc3ccc(Cl)cc3C)cc2)no1 | 7.59 | 102
CCO.C[C@H]1c2cccc(O)c2C(=O)C2=C(O)[C@]3(O)C(O)=C(C(N)=O)C(=O)[C@@H](N(C)C)C3[C@@H](O)C21.Cl.O (some centres not stated) | 81.3 | 242
CNc1ccc2oc(C[C@H]3O[C@@]4(CC[C@H]3C)O[C@H]([C@H](C)C(=O)c3ccc[nH]3)[C@H](C)C[C@H]4C)nc2c1C(=O)O | 9.01 | 148
CC(C)[C@@H]1CC[C@@H](C)C[C@H]1OC(=O)C[n+]1cc(-c2ccc(Cl)cc2)n2c1CCCCC2.[Cl-] | 101 | 8.38
Cc1nn(CC(=O)NC2C(=O)N3C(C(=O)O)=C(CSc4nnnn4C)CSC23)cc1Br (configuration not stated) | 30.6 | 236
COc1cccc(OCCNC(=O)c2cc([N+](=O)[O-])cc([N+](=O)[O-])c2)c1 | 10.6 | 265
O=[N+]([O-])c1cc([N+](=O)[O-])c2nonc2c1Nc1ccccc1O | 5.05 | 146
O=C(NN=C1CCCCCCCCCCC1)c1ccncc1 | 73.9 | 262
CC1CCN(C(=O)C2CCN(c3nnc(-n4cccc4)s3)CC2)CC1 | < 0 | 234
Cn1c(NC(=S)Nc2ccccc2)nc2ccccc21 | 55.9 | 206
CC(C)c1ccc(CNc2nc3nc4c(c(O)n3n2)CCC4)cc1 | < 0 | 163
O=C(N/N=C\c1ccc(Cl)s1)C1COc2ccccc2O1 (configuration not stated) | 2.47 | 129
CCN(CC)CCOC(=O)c1ccc(N/C=C(/C#N)c2nc(-c3ccc(OC)c(OC)c3)cs2)cc1 | 36.6 | 90.7
O=C(CSc1cccc[n+]1[O-])c1cc(Cl)ccc1Cl | 47.3 | 127
Cc1ccc(S(=O)(=O)N2CCN(C(=O)c3cc(S(=O)(=O)N4CCOCC4)c(Cl)cc3Cl)CC2)cc1 | 21.2 | 75.1
